Results from the kinase profiling compilation of Christmann-Franck et al. (2016).

Tests used:
Assay in all cases: radiometric filter-binding kinase assay
MAPK1 (human) = MAPK1 (human) (UniProt P28482); details: compound 10.0 µM
IKBKE (human) = IKBKE (human) (UniProt Q14164); details: compound 10.0 µM
MAPK14 (human) = MAPK14 (human) (UniProt Q16539)
EPHB4 (human) = EPHB4 (human) (UniProt P54760)
TSSK1B (human) = TSSK1B (human) (UniProt Q9BXA7); details: compound 1.0 µM
RIPK2 (human) = RIPK2 (human) (UniProt O43353)
ZAP70 (human) = ZAP70 (human) (UniProt P43403); details: compound 1.0 µM
WNK1 (human) = WNK1 (human) (UniProt Q9H4A3)
MAP2K1 (human) = MAP2K1 (human) (UniProt Q02750); details: compound 1.0 µM
RPS6KA1 KD1 KD2 (human) = RPS6KA1 KD1 KD2 (human) (UniProt Q15418); details: compound 1.0 µM
EPHB2 (human) = EPHB2 (human) (UniProt P29323); details: compound 1.0 µM
SRC (human) = SRC (human) (UniProt P12931); details: compound 10.0 µM
SIK2 (human) = SIK2 (human) (UniProt Q9H0K1); details: compound 10.0 µM
IGF1R (human) = IGF1R (human) (UniProt P08069)
CSNK1D (human) = CSNK1D (human) (UniProt P48730); details: compound 1.0 µM
LCK (mouse) = details: compound 1.0 µM; accession and sequence are those of the human protein
[1] = test system: PAK2 (human), Q13177 [T402E]; details: compound 1.0 µM
INSRR (human) = INSRR (human) (UniProt P14616); details: compound 1.0 µM
MAPK9 (human) = MAPK9 (human) (UniProt P45984); details: compound 1.0 µM
DYRK3 (human) = DYRK3 (human) (UniProt O43781); details: compound 1.0 µM
SYK (human) = SYK (human) (UniProt P43405)
MYLK (human) = MYLK (human) (UniProt Q15746)
[2] = target: STK11 CAB39 STRADA (human) (UniProt Q9Y376+Q7RTN6+Q15831)
EPHB3 (human) = EPHB3 (human) (UniProt P54753)
Sequence of EPHB3 (human) (P54753 whole entry, looked up): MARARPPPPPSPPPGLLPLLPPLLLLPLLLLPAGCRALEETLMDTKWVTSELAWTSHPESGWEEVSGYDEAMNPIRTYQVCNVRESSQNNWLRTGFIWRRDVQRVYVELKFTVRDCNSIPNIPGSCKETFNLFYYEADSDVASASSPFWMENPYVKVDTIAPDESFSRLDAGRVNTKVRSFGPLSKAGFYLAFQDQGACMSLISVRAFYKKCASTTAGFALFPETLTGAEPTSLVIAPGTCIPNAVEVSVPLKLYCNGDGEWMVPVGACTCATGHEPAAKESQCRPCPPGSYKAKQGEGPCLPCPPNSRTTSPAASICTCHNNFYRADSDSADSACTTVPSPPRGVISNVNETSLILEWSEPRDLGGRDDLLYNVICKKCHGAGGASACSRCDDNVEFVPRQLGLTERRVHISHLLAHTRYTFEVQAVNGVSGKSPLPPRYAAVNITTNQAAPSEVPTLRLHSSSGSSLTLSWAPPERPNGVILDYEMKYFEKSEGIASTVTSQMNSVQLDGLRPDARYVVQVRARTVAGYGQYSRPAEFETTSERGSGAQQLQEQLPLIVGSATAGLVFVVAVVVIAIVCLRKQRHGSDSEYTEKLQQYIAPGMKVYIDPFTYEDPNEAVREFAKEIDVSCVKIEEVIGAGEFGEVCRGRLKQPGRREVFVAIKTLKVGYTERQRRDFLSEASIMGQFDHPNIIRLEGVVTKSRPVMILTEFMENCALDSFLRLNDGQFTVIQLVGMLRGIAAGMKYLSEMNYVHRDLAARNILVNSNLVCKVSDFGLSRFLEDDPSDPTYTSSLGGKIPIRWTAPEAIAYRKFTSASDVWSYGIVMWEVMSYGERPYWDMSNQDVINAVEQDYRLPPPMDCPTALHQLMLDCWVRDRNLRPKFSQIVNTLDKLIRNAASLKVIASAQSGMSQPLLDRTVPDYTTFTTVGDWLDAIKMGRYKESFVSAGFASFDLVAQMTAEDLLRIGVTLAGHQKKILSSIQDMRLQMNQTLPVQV

STK24 (human) = STK24 (human) (UniProt Q9Y6E0); details: compound 1.0 µM
CDK2 CCNA2 (human) = CDK2 CCNA2 (human) (UniProt P20248+P24941)
PRKAA1 or PRKAA2 (rat) = details: compound 1.0 µM; accession and sequence are those of the human protein
RPS6KA5 KD1 KD2 (human) = RPS6KA5 KD1 KD2 (human) (UniProt O75582); details: compound 10.0 µM
PHKG1 (human) = PHKG1 (human) (UniProt Q16816)
MINK1 (human) = MINK1 (human) (UniProt Q8N4C8); details: compound 10.0 µM
MAPKAPK5 (human) = MAPKAPK5 (human) (UniProt Q8IW41)
Sequence of MAPKAPK5 (human) (Q8IW41 whole entry, looked up): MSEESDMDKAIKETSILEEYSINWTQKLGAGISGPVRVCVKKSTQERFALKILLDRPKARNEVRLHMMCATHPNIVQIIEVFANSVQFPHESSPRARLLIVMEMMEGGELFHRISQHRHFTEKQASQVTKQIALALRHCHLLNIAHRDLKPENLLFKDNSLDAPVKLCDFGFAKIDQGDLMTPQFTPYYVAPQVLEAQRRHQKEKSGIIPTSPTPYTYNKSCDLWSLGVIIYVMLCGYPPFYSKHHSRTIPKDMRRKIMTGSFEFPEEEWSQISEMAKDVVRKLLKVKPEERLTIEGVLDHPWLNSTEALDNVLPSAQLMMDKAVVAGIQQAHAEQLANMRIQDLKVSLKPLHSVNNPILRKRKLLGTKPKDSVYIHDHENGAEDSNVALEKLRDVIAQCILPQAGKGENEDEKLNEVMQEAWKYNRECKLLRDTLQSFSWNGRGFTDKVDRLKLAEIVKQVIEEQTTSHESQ

PKN2 (human) = PKN2 (human) (UniProt Q16513); details: compound 10.0 µM
CSK (human) = CSK (human) (UniProt P41240); details: compound 1.0 µM
NTRK1 (human) = NTRK1 (human) (UniProt P04629); details: compound 1.0 µM
SRPK1 (human) = SRPK1 (human) (UniProt Q96SB4)
Sequence of SRPK1 (human) (Q96SB4 whole entry, looked up): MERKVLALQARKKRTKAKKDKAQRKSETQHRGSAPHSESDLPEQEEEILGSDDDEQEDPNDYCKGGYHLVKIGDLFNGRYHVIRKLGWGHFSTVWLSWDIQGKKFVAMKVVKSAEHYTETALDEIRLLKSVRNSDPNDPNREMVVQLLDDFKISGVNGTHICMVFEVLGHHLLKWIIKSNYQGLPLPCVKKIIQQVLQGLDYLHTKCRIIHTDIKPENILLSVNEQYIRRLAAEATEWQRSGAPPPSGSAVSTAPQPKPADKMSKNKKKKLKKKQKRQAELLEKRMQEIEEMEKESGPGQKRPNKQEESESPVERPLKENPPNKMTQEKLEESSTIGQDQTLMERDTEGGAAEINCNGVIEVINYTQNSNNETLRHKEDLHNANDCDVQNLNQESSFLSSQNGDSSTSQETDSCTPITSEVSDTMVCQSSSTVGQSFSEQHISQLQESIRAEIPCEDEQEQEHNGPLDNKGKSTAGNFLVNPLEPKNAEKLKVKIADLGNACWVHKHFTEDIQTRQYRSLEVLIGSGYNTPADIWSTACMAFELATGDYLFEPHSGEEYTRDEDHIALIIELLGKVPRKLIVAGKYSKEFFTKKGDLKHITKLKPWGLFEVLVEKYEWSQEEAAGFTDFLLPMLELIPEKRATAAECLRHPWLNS

MAP3K7 TAB1 (human) = MAP3K7 TAB1 (human) (UniProt Q15750+O43318)
NEK6 (human) = NEK6 (human) (UniProt Q9HC98); details: compound 10.0 µM
PTK6 (human) = PTK6 (human) (UniProt Q13882)
Sequence of PTK6 (human) (Q13882 whole entry, looked up): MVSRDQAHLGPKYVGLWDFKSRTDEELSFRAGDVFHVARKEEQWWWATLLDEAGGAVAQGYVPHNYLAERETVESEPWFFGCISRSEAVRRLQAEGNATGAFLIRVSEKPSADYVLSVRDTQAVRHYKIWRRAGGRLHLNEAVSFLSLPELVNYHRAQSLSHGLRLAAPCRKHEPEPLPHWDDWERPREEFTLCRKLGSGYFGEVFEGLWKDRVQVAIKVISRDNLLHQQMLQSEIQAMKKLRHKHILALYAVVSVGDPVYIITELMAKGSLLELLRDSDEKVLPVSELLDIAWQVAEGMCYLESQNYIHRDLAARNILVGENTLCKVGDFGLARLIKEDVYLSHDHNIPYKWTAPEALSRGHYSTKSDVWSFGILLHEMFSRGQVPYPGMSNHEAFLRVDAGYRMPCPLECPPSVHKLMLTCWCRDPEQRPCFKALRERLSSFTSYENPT

MAP3K9 (human) = MAP3K9 (human) (UniProt P80192); details: compound 1.0 µM
GSK3B (human) = GSK3B (human) (UniProt P49841); details: compound 1.0 µM
YES1 (human) = YES1 (human) (UniProt P07947); details: compound 1.0 µM
NUAK1 (human) = NUAK1 (human) (UniProt O60285)
STK33 (human) = STK33 (human) (UniProt Q9BYT3)
Sequence of STK33 (human) (Q9BYT3 whole entry, looked up): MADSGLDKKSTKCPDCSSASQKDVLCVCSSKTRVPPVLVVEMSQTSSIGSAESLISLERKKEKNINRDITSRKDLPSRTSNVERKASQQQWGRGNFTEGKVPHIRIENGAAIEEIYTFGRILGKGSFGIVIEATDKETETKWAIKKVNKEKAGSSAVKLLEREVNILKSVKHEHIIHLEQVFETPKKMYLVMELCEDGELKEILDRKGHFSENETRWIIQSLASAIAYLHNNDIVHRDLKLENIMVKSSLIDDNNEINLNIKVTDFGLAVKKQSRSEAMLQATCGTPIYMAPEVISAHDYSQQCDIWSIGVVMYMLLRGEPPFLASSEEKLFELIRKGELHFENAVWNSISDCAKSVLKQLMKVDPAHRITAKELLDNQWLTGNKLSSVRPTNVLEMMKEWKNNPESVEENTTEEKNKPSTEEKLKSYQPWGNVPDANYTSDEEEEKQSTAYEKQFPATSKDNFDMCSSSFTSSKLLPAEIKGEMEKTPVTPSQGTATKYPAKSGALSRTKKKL

MELK (human) = MELK (human) (UniProt Q14680); details: compound 1.0 µM
TEK (human) = TEK (human) (UniProt Q02763)
Sequence of TEK (human) (Q02763 whole entry, looked up): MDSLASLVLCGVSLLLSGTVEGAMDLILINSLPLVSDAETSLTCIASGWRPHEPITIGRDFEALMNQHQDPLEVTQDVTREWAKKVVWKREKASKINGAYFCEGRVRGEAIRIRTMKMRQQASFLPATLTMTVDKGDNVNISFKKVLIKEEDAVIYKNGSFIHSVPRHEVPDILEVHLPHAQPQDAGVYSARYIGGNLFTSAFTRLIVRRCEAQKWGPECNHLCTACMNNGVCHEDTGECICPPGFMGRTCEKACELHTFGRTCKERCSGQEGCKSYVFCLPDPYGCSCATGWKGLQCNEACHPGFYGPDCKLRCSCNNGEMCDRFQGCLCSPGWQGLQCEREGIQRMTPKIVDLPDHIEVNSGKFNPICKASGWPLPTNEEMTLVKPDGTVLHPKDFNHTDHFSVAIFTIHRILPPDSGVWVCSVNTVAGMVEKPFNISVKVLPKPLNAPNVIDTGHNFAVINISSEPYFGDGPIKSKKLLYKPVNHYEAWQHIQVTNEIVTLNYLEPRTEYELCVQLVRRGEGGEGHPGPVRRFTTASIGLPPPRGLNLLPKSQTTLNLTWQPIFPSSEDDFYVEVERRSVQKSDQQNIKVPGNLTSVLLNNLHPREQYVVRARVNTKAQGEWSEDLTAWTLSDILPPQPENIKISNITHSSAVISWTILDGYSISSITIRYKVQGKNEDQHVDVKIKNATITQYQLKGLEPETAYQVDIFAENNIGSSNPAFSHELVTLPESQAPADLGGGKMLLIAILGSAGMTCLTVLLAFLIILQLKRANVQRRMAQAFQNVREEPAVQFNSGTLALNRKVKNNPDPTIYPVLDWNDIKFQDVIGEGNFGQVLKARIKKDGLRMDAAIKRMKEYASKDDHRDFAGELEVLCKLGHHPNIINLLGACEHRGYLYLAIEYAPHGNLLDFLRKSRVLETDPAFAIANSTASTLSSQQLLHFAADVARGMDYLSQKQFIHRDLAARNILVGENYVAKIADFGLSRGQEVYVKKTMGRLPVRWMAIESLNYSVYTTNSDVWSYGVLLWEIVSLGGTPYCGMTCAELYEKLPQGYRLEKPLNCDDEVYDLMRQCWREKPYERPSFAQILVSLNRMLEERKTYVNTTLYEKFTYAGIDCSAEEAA

PIM1 (human) = PIM1 (human) (UniProt P11309)
Sequence of PIM1 (human) (P11309 whole entry, looked up): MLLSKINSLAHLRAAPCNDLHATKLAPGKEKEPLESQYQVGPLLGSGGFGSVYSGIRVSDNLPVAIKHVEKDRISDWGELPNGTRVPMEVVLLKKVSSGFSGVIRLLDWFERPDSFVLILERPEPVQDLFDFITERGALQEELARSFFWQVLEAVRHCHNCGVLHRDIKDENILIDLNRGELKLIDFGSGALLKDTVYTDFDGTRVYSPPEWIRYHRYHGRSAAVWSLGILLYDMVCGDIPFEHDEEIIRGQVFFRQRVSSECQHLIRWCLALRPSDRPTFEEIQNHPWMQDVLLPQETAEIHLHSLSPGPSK

CAMKK2 (human) = CAMKK2 (human) (UniProt Q96RR4); details: compound 1.0 µM

Sequence of MAPK14 (human) (Q16539 whole entry, looked up): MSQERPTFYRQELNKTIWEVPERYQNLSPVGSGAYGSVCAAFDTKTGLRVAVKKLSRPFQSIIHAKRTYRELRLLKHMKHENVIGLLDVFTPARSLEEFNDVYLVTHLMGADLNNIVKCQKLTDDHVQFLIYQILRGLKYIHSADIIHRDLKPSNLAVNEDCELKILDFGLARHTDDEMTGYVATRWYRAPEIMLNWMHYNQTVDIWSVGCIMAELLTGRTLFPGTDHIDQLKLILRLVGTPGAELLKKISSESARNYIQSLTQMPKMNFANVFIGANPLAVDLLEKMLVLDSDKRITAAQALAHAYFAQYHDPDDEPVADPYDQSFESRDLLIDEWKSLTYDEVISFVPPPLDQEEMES

- residual activity (MAPK1 (human)): 115%
- residual activity (IKBKE (human)): 102%
- residual activity (MAPK14 (human); compound 1.0 µM): 101%
- residual activity (MAPK14 (human); compound 10.0 µM): 102%
- residual activity (EPHB4 (human); compound 1.0 µM): 118%
- residual activity (EPHB4 (human); compound 10.0 µM): 108%
- residual activity (TSSK1B (human)): 103%
- residual activity (RIPK2 (human); compound 1.0 µM): 59%
- residual activity (RIPK2 (human); compound 10.0 µM): 56%
- residual activity (ZAP70 (human)): 103%
- residual activity (WNK1 (human); compound 1.0 µM): 104%
- residual activity (WNK1 (human); compound 10.0 µM): 106%
- residual activity (MAP2K1 (human)): 77%
- residual activity (RPS6KA1 KD1 KD2 (human)): 69%
- residual activity (EPHB2 (human)): 123%
- residual activity (SRC (human)): 160%
- residual activity (SIK2 (human)): 111%
- residual activity (IGF1R (human); compound 1.0 µM): 123%
- residual activity (IGF1R (human); compound 10.0 µM): 117%
- residual activity (CSNK1D (human)): 107%
- residual activity (LCK (mouse)): 113%
- residual activity [1]: 116%
- residual activity (INSRR (human)): 76%
- residual activity (MAPK9 (human)): 107%
- residual activity (DYRK3 (human)): 101%
- residual activity (SYK (human); compound 1.0 µM): 115%
- residual activity (SYK (human); compound 10.0 µM): 125%
- residual activity (MYLK (human); compound 1.0 µM): 32%
- residual activity (MYLK (human); compound 10.0 µM): 23%
- residual activity ([2]; compound 1.0 µM): 97%
- residual activity ([2]; compound 10.0 µM): 105%
- residual activity (EPHB3 (human); compound 1.0 µM): 121%
- residual activity (EPHB3 (human); compound 10.0 µM): 113%
- residual activity (STK24 (human)): 101%
- residual activity (CDK2 CCNA2 (human); compound 1.0 µM): 113%
- residual activity (CDK2 CCNA2 (human); compound 10.0 µM): 117%
- residual activity (PRKAA1 or PRKAA2 (rat)): 90%
- residual activity (RPS6KA5 KD1 KD2 (human)): 120%
- residual activity (PHKG1 (human); compound 1.0 µM): 78%
- residual activity (PHKG1 (human); compound 10.0 µM): 75%
- residual activity (MINK1 (human)): 76%
- residual activity (MAPKAPK5 (human); compound 1.0 µM): 109%
- residual activity (MAPKAPK5 (human); compound 10.0 µM): 114%
- residual activity (PKN2 (human)): 79%
- residual activity (CSK (human)): 104%
- residual activity (NTRK1 (human)): 80%
- residual activity (SRPK1 (human); compound 1.0 µM): 61%
- residual activity (SRPK1 (human); compound 10.0 µM): 69%
- residual activity (MAP3K7 TAB1 (human); compound 1.0 µM): 108%
- residual activity (MAP3K7 TAB1 (human); compound 10.0 µM): 101%
- residual activity (NEK6 (human)): 65%
- residual activity (PTK6 (human); compound 1.0 µM): 103%
- residual activity (PTK6 (human); compound 10.0 µM): 101%
- residual activity (MAP3K9 (human)): 69%
- residual activity (GSK3B (human)): 119%
- residual activity (YES1 (human)): 120%
- residual activity (NUAK1 (human); compound 1.0 µM): 31%
- residual activity (NUAK1 (human); compound 10.0 µM): 58%
- residual activity (STK33 (human); compound 1.0 µM): 64%
- residual activity (STK33 (human); compound 10.0 µM): 66%
- residual activity (MELK (human)): 102%
- residual activity (TEK (human); compound 1.0 µM): 119%
- residual activity (TEK (human); compound 10.0 µM): 133%
- residual activity (PIM1 (human); compound 1.0 µM): 102%
- residual activity (PIM1 (human); compound 10.0 µM): 109%
- residual activity (CAMKK2 (human)): 71%
SMILES: O=C(Nc1cccnc1)c1cc(-c2ccnc(F)c2)ccc1OCc1ccccc1
